Where two headings read alike, the source gives them in different places. Marks after values point to notes of the source that are not given here.
Columns and labels:
[1] = logP by HPLC on reversed-phase column (C 18), EEC Directive 79/831 Annex V.A8; assay type: physicochemical
[2] = tested on: weeds; assay: Post-emergence test (Example B), damage to weeds; assay type: in vivo; conditions: test plants of 5-15 cm sprayed, rated after three weeks
Protocol: To produce a suitable preparation of active compound, 1 part by weight of active compound is mixed with the stated amount of solvent, the stated amount of emulsifier is added and the concentrate is diluted with water to the desired concentration.
Test plants of a height of 5-15 cm are sprayed with the preparation of active compound such that the particular amounts of active compound desired are applied per unit area. The concentration of the spray liquor is chosen such that the particular amounts of active compound desired are applied in 1000 l of water/ha.
After three weeks, the degree of damage to the plants is rated in % damage in comparison to the development of the untreated control.
The figures denote: • 0%=no effect (like untreated control) • 100%=total destruction

[3] = a) acidic range: 0.1% aqueous phosphoric acid, acetonitrile gradient, 43° C.

| logP [1] | Structure (SMILES) | further results |
| --- | --- | --- |
| logP = 2.80^a) | CCN(C(=O)N(C)OC)c1cc(-n2c(=O)cc(C(F)(F)F)n(C)c2=O)c(F)cc1Cl [Example 111] |  |
| logP = 2.54^a) | CCOC(=O)CN(C)C(=O)Nc1cc(-n2c(=O)cc(C(F)(F)F)n(C)c2=O)c(F)cc1Br [Example 122] |  |
| logP = 2.58^a) | CCOC(=O)CONC(=O)Nc1cc(-n2c(=O)cc(C(F)(F)F)n(C)c2=O)c(F)cc1Cl [Example 104] |  |
| logP = 1.74^a) | CC(=O)NC1CCN(C(=O)Nc2cc(-n3c(=O)cc(C(F)(F)F)n(C)c3=O)c(F)cc2Cl)C1 (stereo not drawn) [Example 94] |  |
| logP = 2.41^a) | Cn1c(C(F)(F)F)cc(=O)n(-c2cc(NC(=O)N3CCCS3(=O)=O)c(Br)cc2F)c1=O [Example 103] |  |
| logP = 1.72^a) | Cn1c(C(F)(F)F)cc(=O)n(-c2cc(NC(=O)N3CCC(O)C3)c(Cl)cc2F)c1=O (stereo not drawn) [Example 113] |  |
| logP = 2.70^a) | CCOC(=O)C1CCCN(C(=O)Nc2cc(-n3c(=O)cc(C(F)(F)F)n(C)c3=O)c(F)cc2C#N)C1 (stereo not drawn) [Example 133] |  |
| logP = 3.01^a) | CCN(OC)C(=O)Nc1cc(-n2c(=O)cc(C(F)(F)F)n(C)c2=O)c(F)cc1Br [Example 75] |  |
| logP = 3.02^a) | Cn1c(C(F)(F)F)cc(=O)n(-c2cc(NC(=O)N3CCCCCC3)c(Cl)cc2F)c1=O [Example 98] |  |
| logP = 1.81^a) | Cn1c(C(F)(F)F)cc(=O)n(-c2cc(NC(=O)N3CCC(O)CC3)c(Br)cc2F)c1=O [Example 118] |  |
| logP = 2.93^a) | CCN(OC)C(=O)Nc1cc(-n2c(=O)cc(C(F)(F)F)n(C)c2=O)c(F)cc1Cl [Example 74] |  |
| logP = 2.79^a) | CCOC(=O)COC(=O)Nc1cc(-n2c(=O)cc(C(F)(F)F)n(C)c2=O)c(F)cc1Br [Example 125] |  |
| logP = 3.11^a) | CCOC(=O)C(C)(C)ONC(=O)Nc1cc(-n2c(=O)cc(C(F)(F)F)n(C)c2=O)c(F)cc1Cl [Example 100] |  |
| logP = 2.53^a) | CON(C)C(=O)N(C)c1cc(-n2c(=O)cc(C(F)(F)F)n(C)c2=O)c(F)cc1Cl [Example 77] |  |
| logP = 2.43^a) | CCOC(=O)N1CCN(C(=O)Nc2cc(-n3c(=O)cc(C(F)(F)F)n(C)c3=O)c(F)cc2Cl)CC1 [Example 96] |  |
| logP = 2.75^a) | C#CCN(C(=O)N(C)OC)c1cc(-n2c(=O)cc(C(F)(F)F)n(C)c2=O)c(F)cc1Cl [Example 108] |  |
| logP = 2.48^a) | CCOC(=O)CN(C)C(=O)Nc1cc(-n2c(=O)cc(C(F)(F)F)n(C)c2=O)c(F)cc1Cl [Example 121] |  |
| logP = 1.77^a) | Cn1c(C(F)(F)F)cc(=O)n(-c2cc(NC(=O)N3CCC(O)CC3)c(Cl)cc2F)c1=O [Example 117] |  |
| logP = 2.62^a) | CCOC(=O)CONC(=O)Nc1cc(-n2c(=O)cc(C(F)(F)F)n(C)c2=O)c(F)cc1Br [Example 105] |  |
| logP = 3.41^a) | CCON(CC)C(=O)Nc1cc(-n2c(=O)cc(C(F)(F)F)n(C)c2=O)c(F)cc1Br [Example 72] |  |
| logP = 2.38^a) | Cn1c(C(F)(F)F)cc(=O)n(-c2cc(NC(=O)N3CCCS3(=O)=O)c(Cl)cc2F)c1=O [Example 102] |  |
| logP = 2.74^a) | CCOC(=O)C(C)OC(=O)Nc1cc(-n2c(=O)cc(C(F)(F)F)n(C)c2=O)c(F)cc1Cl (stereo not drawn) [Example 127] |  |
| logP = 2.56^a) | CON(C)C(=O)N(c1cc(-n2c(=O)cc(C(F)(F)F)n(C)c2=O)c(F)cc1Cl)S(C)(=O)=O [Example 109] |  |
| logP = 3.35^a) | CCON(CC)C(=O)Nc1cc(-n2c(=O)cc(C(F)(F)F)n(C)c2=O)c(F)cc1Cl [Example 71] |  |
| logP = 1.80^a) | CC(=O)NC1CCN(C(=O)Nc2cc(-n3c(=O)cc(C(F)(F)F)n(C)c3=O)c(F)cc2Br)C1 (stereo not drawn) [Example 95] |  |
| logP = 3.10^a) | Cn1c(C(F)(F)F)cc(=O)n(-c2cc(NC(=O)N3CCCCCC3)c(Br)cc2F)c1=O [Example 99] |  |
| logP = 3.16^a) | CCOC(=O)C(C)(C)ONC(=O)Nc1cc(-n2c(=O)cc(C(F)(F)F)n(C)c2=O)c(F)cc1Br [Example 101] |  |
| logP = 2.47^a) | CCOC(=O)N1CCN(C(=O)Nc2cc(-n3c(=O)cc(C(F)(F)F)n(C)c3=O)c(F)cc2Br)CC1 [Example 97] |  |
| logP = 2.74^a) | CCOC(=O)COC(=O)Nc1cc(-n2c(=O)cc(C(F)(F)F)n(C)c2=O)c(F)cc1Cl [Example 126] |  |

The remaining lines, values behind:

| Structure (SMILES) | logP [1] | further results |
| --- | --- | --- |
| Cn1c(C(F)(F)F)cc(=O)n(-c2cc(NC(=O)N3CCC4(CC3)OCCCO4)c(Br)cc2F)c1=O [Example 87] | logP = 2.35^a) |  |
| COC(=O)[C@@H]1CCCN1C(=O)Nc1cc(-n2c(=O)cc(C(F)(F)F)n(C)c2=O)c(F)cc1Cl [Example 34] | logP = 2.46^a) | activity against weeds (degree of damage) [2]: strong activity |
| Cn1c(C(F)(F)F)cc(=O)n(-c2cc(NC(=O)N3CCCCO3)c(Br)cc2F)c1=O [Example 63] | logP = 2.96^a) |  |
| CCOC(=O)C1CCN(C(=O)Nc2cc(-n3c(=O)cc(C(F)(F)F)n(C)c3=O)c(F)cc2Cl)CC1 [Example 42] | logP = 2.84^a) | activity against weeds (degree of damage) [2]: strong activity |
| CC1CN(C(=O)Nc2cc(-n3c(=O)cc(C(F)(F)F)n(C)c3=O)c(F)cc2Br)CC(C)O1 (stereo not drawn) [Example 120] | logP = 2.55^a) |  |
| C=CCN(C(=O)N(C)OC)c1cc(-n2c(=O)cc(C(F)(F)F)n(C)c2=O)c(F)cc1Cl [Example 106] |  | logP [1, 3]: logP = 2.96^a) |
| COC(=O)CSC(=O)Nc1cc(-n2c(=O)cc(C(F)(F)F)n(C)c2=O)c(F)cc1Cl [Example 14] | logP = 2.55^a) |  |
| CC1CN(C(=O)Nc2cc(-n3c(=O)cc(C(F)(F)F)n(C)c3=O)c(F)cc2Cl)CC(C)O1 (stereo not drawn) [Example 119] | logP = 2.50^a) |  |
| Cn1c(C(F)(F)F)cc(=O)n(-c2cc(NC(=O)N3CCC4(CC3)OCCO4)c(Br)cc2F)c1=O [Example 85] | logP = 2.35^a) |  |
| CCOC(=O)C(C)SC(=O)Nc1cc(-n2c(=O)cc(C(F)(F)F)n(C)c2=O)c(F)cc1Cl (stereo not drawn) [Example 12] | logP = 3.11^a) |  |
| CCOC(=O)C(C)SC(=O)Nc1cc(-n2c(=O)cc(C(F)(F)F)n(C)c2=O)c(F)cc1Br (stereo not drawn) [Example 17] | logP = 3.15^a) |  |
| CCOC(=O)C1CCCN(C(=O)Nc2cc(-n3c(=O)cc(C(F)(F)F)n(C)c3=O)c(F)cc2Br)C1 (stereo not drawn) [Example 1, ethyl 1-[2-bromo-4-fluoro-5-(3-methyl-2,6-dioxo-4-trifluoromethyl-3,6-dihydro-2H-pyrimidin-1-yl)phenylcarbamoyl]piperidine-3-carboxylate] |  | chromatographic logP ([1]; reversed-phase C18 HPLC column, pH 2): 2.98 |
| CCON(C)C(=O)Nc1cc(-n2c(=O)cc(C(F)(F)F)n(C)c2=O)c(F)cc1Br [Example 69] | logP = 3.06^a) |  |
| CCOC(=O)CSC(=O)Nc1cc(-n2c(=O)cc(C(F)(F)F)n(C)c2=O)c(F)cc1Cl [Example 13] | logP = 2.80^a) |  |
| CCN1CCN(C(=O)Nc2cc(-n3c(=O)cc(C(F)(F)F)n(C)c3=O)c(F)cc2Cl)C1=O [Example 53] | logP = 2 2.81^a) |  |
| CCOC(=O)C1CCCN(C(=O)Nc2cc(-n3c(=O)cc(C(F)(F)F)n(C)c3=O)c(F)cc2Cl)C1 (stereo not drawn) [Example 43] | logP = 2.93^a) |  |
| Cn1c(C(F)(F)F)cc(=O)n(-c2cc(NC(=O)NCCC#N)c(Cl)cc2F)c1=O [Example 15] |  | logP [1, 3]: logP = 2.06^a) |
| CCOC(=O)CSC(=O)Nc1cc(-n2c(=O)cc(C(F)(F)F)n(C)c2=O)c(F)cc1Br [Example 18] | logP = 2.90^a) |  |
| Cn1c(C(F)(F)F)cc(=O)n(-c2cc(NC(=O)N3CCC(=O)CC3)c(Br)cc2F)c1=O [Example 93] |  | logP [1, 3]: logP = 1.97^a) |
| CN1CCN(C(=O)Nc2cc(-n3c(=O)cc(C(F)(F)F)n(C)c3=O)c(F)cc2Cl)C1=O [Example 51] | logP = 2.52^a) |  |
| CN1CCCN(C(=O)Nc2cc(-n3c(=O)cc(C(F)(F)F)n(C)c3=O)c(F)cc2Cl)C1=O [Example 56] | logP = 2.76^a) |  |
| Cn1c(C(F)(F)F)cc(=O)n(-c2cc(NC(=O)SC3=NCCS3)c(Cl)cc2F)c1=O [Example 11] | logP = 3.50^a) |  |
| COC(=O)CSC(=O)Nc1cc(-n2c(=O)cc(C(F)(F)F)n(C)c2=O)c(F)cc1Br [Example 19] | logP = 2.59^a) |  |
| Cn1c(C(F)(F)F)cc(=O)n(-c2cc(NC(=O)N3CCC4(CC3)OCCCO4)c(Cl)cc2F)c1=O [Example 86] | logP = 2.29^a) |  |
| CCON(C)C(=O)Nc1cc(-n2c(=O)cc(C(F)(F)F)n(C)c2=O)c(F)cc1Cl [Example 68] | logP = 2.99^a) |  |
| Cn1c(C(F)(F)F)cc(=O)n(-c2cc(NC(=O)N3CCCCO3)c(Cl)cc2F)c1=O [Example 62] | logP = 2.89^a) |  |
| Cn1c(C(F)(F)F)cc(=O)n(-c2cc(NC(=O)N3CCC4(CC3)OCCO4)c(Cl)cc2F)c1=O [Example 84] | logP = 2.29^a) |  |
| Cn1c(C(F)(F)F)cc(=O)n(-c2cc(NC(=O)SC3=NCCS3)c(Br)cc2F)c1=O [Example 16] | logP = 3.53^a) |  |
| Cn1c(C(F)(F)F)cc(=O)n(-c2cc(NC(=O)N3CCC(=O)CC3)c(Cl)cc2F)c1=O [Example 92] |  | logP [1, 3]: logP = 1.93^a) |

From patent US7521396B2, “Substituted (thioxo)carbonylaminophenyluracils” (Bayer CropScience AG, priority 2002, dated 2009)
